Like-named read-outs stand apart in the source and are kept apart here.

In test [1] the test system is production of human TNF-α by PBMC in response to LPS. Kind of test: TNF-α assay (LPS-stimulated PBMC, sandwich ELISA). It is filed as cell-based. To be noted: LPS 1 μg/ml, 72 hours, read-out: TNF α. Here is the method:
Peripheral blood mononuclear cells (herein referred as PBMC), in response to stimulation by lipopolysaccharide (hereinafter LPS), a gram-negative bacterial endotoxin, produce various […], in particular human TNF-α. Inhibition of the activation of PBMC can therefore be measured by the level of suppression of the production of TNF-α by PBMC in response to stimulation by LPS. Inhibition measurement was performed as follows: PBMC were isolated from heparinized peripheral blood by density gradient centrifugation over Lymphoprep (commercially available from Nycomed, Norway). LPS was then added to the PMBC suspension in complete medium (10^6 cells/ml) at a final concentration of 1 μg/ml. The pteridine derivative to be tested was added at different concentrations (0.1 μM, 1 μM and 10 μM) and the cells were incubated at 37° C. for 72 hours in 5% CO2. The supernatants were collected, then TNF-α concentrations were measured with respectively an anti-TNF-α antibody in a sandwich ELISA (Duo Set ELISA human TNFα, commercially available from R&D Systems, United Kingdom). The colorimetric reading of the ELISA was measured by a Multiskan RC plate reader (commercially available from ThermoLabsystems, Finland) at 450 nm (reference wavelength: 690 nm). Data analysis was performed with Ascent software 2.6. (also from ThermoLabsystems, Finland): a standard curve (recombinant human TNFα) was drawn and the amount (pg/ml) of each sample on the standard curve was determined. The % suppression of human TNFα production by the pyrido[3,2-d]pyrimidine derivatives of the invention was calculated using the formula: [formula]

Test [2] has as its system peripheral blood mononuclear cells (PBMC) stimulated with allogeneic PBMC or EBV-transformed human B cells (RPMI1788). In words: Mixed lymphocyte reaction (MLR) assay. It counts as cell-based. As to conditions: 50% suppression of the MLR, [3H]-thymidine incorporation, read-out: MLR. In outline:
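Compounds, held as 10 mM DMSO stocks and diluted in culture medium, were added to PBMC stimulated by 30 Gy-irradiated allogeneic PBMC or RPMI1788 cells. Proliferation was read as [3H]-thymidine uptake (1 μCi, final 16 h) after 5 days at 37° C. Inhibition was derived from cpm.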
In general terms: Incorporation of labelled thymidine or its analogues reports DNA synthesis.

`COc1ccc(-c2ccc3ncnc(N4CCNCC4)c3n2)cc1OC` [Example 107, 4-(N-piperazin-1-yl)-6-(3,4-dimethoxyphenyl)-pyrido[3,2-d]-pyrimidine]: the figures for the IC50 in test [1] and in test [2] were 2700 nM and 3800 nM, respectively.

With `COc1ccc(-c2ccc3ncnc(N4CCNCC4)c3n2)cc1C` [Example 116, 4-(piperazin-1-yl)-6-(3-methyl-4-methoxyphenyl)-pyrido[3,2-d]pyrimidine], the IC50 in test [1] (Homo sapiens, PBMC) was 8100 nM; in test [2] (Homo sapiens, RPMI-1788), 5100 nM.

`Clc1ccc(-c2ccc3ncnc(N4CCOCC4)c3n2)cc1` [Example 124, 4-morpholino-6-(4-chlorophenyl)-pyrido[3,2-d]pyrimidine]: the IC50 in test [1] (Homo sapiens, PBMC) was 10000 nM; in test [2] (Homo sapiens, RPMI-1788), 7200 nM.

With `COc1ccc(-c2ccc3nc(N)nc(N4CCOCC4)c3n2)cc1C` [Example 163, 2-amino-4-(morpholino)-6-(3-methyl-4-methoxyphenyl)pyrido[3,2-d]pyrimidine], the IC50 amounted to 6500 nM in test [1] (Homo sapiens, PBMC) and 3600 nM in test [2] (Homo sapiens, RPMI-1788).

With `COc1ccc(-c2ccc3nc(N)nc(N4CCOCC4)c3n2)cc1Cl` [Example 164, 2-amino-4-(morpholino)-6-(3-chloro-4-methoxyphenyl)pyrido[3,2-d]pyrimidine], the IC50 in test [1] (Homo sapiens, PBMC) amounted to 1500 nM; in test [2] (Homo sapiens, RPMI-1788), 600 nM.

In the case of `Nc1nc(N2CCOCC2)c2nc(-c3ccc4c(c3)OCCO4)ccc2n1` [Example 165, 2-amino-4-(morpholino)-6-(1,4-benzodioxane-phenyl)pyrido[3,2-d]pyrimidine], the IC50 in test [1] came to 900 nM; in test [2], 600 nM.

With `CCOc1ccc(-c2ccc3nc(N)nc(N4CCOCC4)c3n2)cc1F` [Example 166, 2-amino-4-morpholino-6-(3-fluoro-4-ethoxy-phenyl)-pyrido[3,2-d]pyrimidine], the IC50 in test [1] (Homo sapiens, PBMC) worked out at 800 nM; in test [2] (Homo sapiens, RPMI-1788) it was 700 nM.

With `CC(=O)N1CCN(c2nc(N)nc3ccc(-c4ccc5c(c4)OCO5)nc23)CC1` [Example 190, 2-amino-4-[N-acetyl-piperazin-1-yl]-6-(3,4-methylenedioxyphenyl)-pyrido[3,2-d]pyrimidine], the IC50 amounted to 4800 nM in test [1] (Homo sapiens, PBMC) and 800 nM in test [2] (Homo sapiens, RPMI-1788).

Consider `Nc1nc(N2CCN(CC(=O)Nc3nccs3)CC2)c2nc(-c3ccc4c(c3)OCO4)ccc2n1` [Example 191], for which the IC50 in test [1] (Homo sapiens, PBMC) stood at 3500 nM; in test [2] (Homo sapiens, RPMI-1788), 400 nM.

For the compound `Nc1nc(N2CCN(C(=O)COc3ccc(Cl)cc3)CC2)c2nc(-c3ccc4c(c3)OCO4)ccc2n1` [Example 193, 2-amino-4-[N-(4-chlorophenoxy-acetyl)-piperazin-1-yl]-6-(3,4-methylenedioxyphenyl)-pyrido[3,2-d]pyrimidine], the IC50 in test [1] (Homo sapiens, PBMC) came out at 5800 nM; in test [2] (Homo sapiens, RPMI-1788), 40 nM.

For the compound `Cc1cccc(NC(=O)N2CCN(c3nc(N)nc4ccc(-c5ccc6c(c5)OCO6)nc34)CC2)c1` [Example 196, 2-amino-4-[N-(3-methyl-phenyl-carbamoyl)-piperazin-1-yl]-6-(3,4-methylenedioxyphenyl)-pyrido[3,2-d]pyrimidine], the IC50 in test [1] (Homo sapiens, PBMC) was determined as 5300 nM; in test [2] (Homo sapiens, RPMI-1788), 30 nM.

In the case of `CC(=O)N1CCN(c2nc(N)nc3ccc(-c4ccc5c(c4)OCCO5)nc23)CC1` [Example 199, 2-amino-4-[N-acetyl-piperazin-1-yl]-6-(1,4-benzodioxane)-pyrido[3,2-d]pyrimidine], the IC50 in test [1] (Homo sapiens, PBMC) turned out to be 2900 nM; in test [2] (Homo sapiens, RPMI-1788) it was 4800 nM.

In the case of `Nc1nc(N2CCN(CC(=O)Nc3nccs3)CC2)c2nc(-c3ccc4c(c3)OCCO4)ccc2n1` [Example 201], the IC50 is 3400 nM in test [1] (Homo sapiens, PBMC) and 800 nM in test [2] (Homo sapiens, RPMI-1788).

Regarding `Nc1nc(N2CCOCC2)c2nc(-c3ccccc3Br)ccc2n1` [Example 210, 2-amino-4-morpholino-6-(2-bromo-phenyl)-pyrido[3,2-d]pyrimidine], the IC50 in test [1] (Homo sapiens, PBMC) worked out at 7200 nM; in test [2] (Homo sapiens, RPMI-1788), 1800 nM.

As to `COc1ccc(-c2ccc3ncnc(N4CCN(C(=O)Nc5cccc(Cl)c5)CC4)c3n2)cc1OCC1CC1` [Example 215, 4-[N-(3-chloro-phenylcarbamoyl)-piperazin-1-yl]-6-(3-cyclopropylmethoxy-4-methoxy-phenyl)-pyrido[3,2-d]pyrimidine], the IC50 in test [1] (Homo sapiens, PBMC) was 800 nM; in test [2] (Homo sapiens, RPMI-1788) it was 200 nM.

In the case of `COc1ccc(-c2ccc3nc(N)nc(N4CC[C@H](N)C4)c3n2)cc1OC` [Example 219, 2-amino-4-[(S)-3-(amino)pyrrolidine]-6-(3,4-dimethoxyphenyl)-pyrido[3,2-d]pyrimidine], the IC50 is 1900 nM in test [1] (Homo sapiens, PBMC) and 5500 nM in test [2] (Homo sapiens, RPMI-1788).

Take `COc1ccc(-c2ccc3nc(N)nc(N4CC[C@H](NC(=O)COc5ccc(Cl)cc5)C4)c3n2)cc1OC` [Example 220]: the IC50 amounted to 1800 nM in test [1] (Homo sapiens, PBMC) and 4300 nM in test [2] (Homo sapiens, RPMI-1788).

Regarding `COc1ccc(-c2ccc3nc(N)nc(SC)c3n2)cc1OC` [Example 223, 2-amino-4-thiomethyl-6-(3,4-dimethoxyphenyl)-pyrido[3,2-d]pyrimidine], the IC50 in test [1] is 800 nM; in test [2] it was 900 nM.

Regarding `Nc1nc(N2CCOCC2)c2nc(-c3ccco3)ccc2n1` [Example 232, 2-amino-4-morpholino-6-(2-furan)-pyrido[3,2-d]pyrimidine], the IC50 in test [1] and in test [2] was 5300 nM throughout.

Consider `Nc1nc(N2CCOCC2)c2nc(-c3ccsc3)ccc2n1` [Example 233, 2-amino-4-morpholino-6-(3-thiophene)-pyrido[3,2-d]pyrimidine], for which the values for the IC50 in test [1] and in test [2] were 3700 nM and 4400 nM, respectively.

As for `Nc1nc(N2CCOCC2)c2nc(-c3ccncc3)ccc2n1` [Example 234, 2-amino-4-morpholino-6-(4-pyridinyl)-pyrido[3,2-d]pyrimidine], the IC50 turned out to be 500 nM in test [1] (Homo sapiens, PBMC) and 700 nM in test [2] (Homo sapiens, RPMI-1788).

Consider `Cc1ccc(-c2ccc3nc(N)nc(N4CCOCC4)c3n2)s1` [Example 235, 2-amino-4-morpholino-6-(5-methyl-2-thienyl)-pyrido[3,2-d]pyrimidine], for which the IC50 in test [1] (Homo sapiens, PBMC) was 1800 nM; in test [2] (Homo sapiens, RPMI-1788) it was 3400 nM.

Regarding `Nc1nc(N2CCOCC2)c2nc(-c3ccc4[nH]ccc4c3)ccc2n1` [Example 237, 2-amino-4-morpholino-6-(5-indolyl)-pyrido[3,2-d]pyrimidine], the IC50 in test [1] (Homo sapiens, PBMC) was 2600 nM; in test [2] (Homo sapiens, RPMI-1788), 800 nM.

Take `Nc1nc(N2CCOCC2)c2nc(-c3cccs3)ccc2n1` [Example 238, 2-amino-4-morpholino-6-(2-thienyl)-pyrido[3,2-d]pyrimidine]: the IC50 in test [1] (Homo sapiens, PBMC) turned out to be 2800 nM; in test [2] (Homo sapiens, RPMI-1788) it was 800 nM.

Regarding `Cc1csc(-c2ccc3nc(N)nc(N4CCOCC4)c3n2)c1` [Example 239, 2-amino-4-morpholino-6-(4-methyl-2-thienyl)-pyrido[3,2-d]pyrimidine], the IC50 in test [1] (Homo sapiens, PBMC) stood at 4900 nM; in test [2] (Homo sapiens, RPMI-1788) it was 4600 nM.

Turning to `Nc1nc(N2CCOCC2)c2nc(-c3cccnc3)ccc2n1` [Example 240, 2-amino-4-morpholino-6-(3-pyridinyl)-pyrido[3,2-d]pyrimidine], the IC50 in test [1] (Homo sapiens, PBMC) is 700 nM; in test [2] (Homo sapiens, RPMI-1788) it was 1300 nM.

Regarding `Nc1nc(N2CCOCC2)c2nc(-c3ccc(Cl)s3)ccc2n1` [Example 241, 2-amino-4-morpholino-6-(5-chloro-2-thienyl)-pyrido[3,2-d]pyrimidine], the IC50 turned out to be 5400 nM in test [1] (Homo sapiens, PBMC) and 2200 nM in test [2] (Homo sapiens, RPMI-1788).

For `Nc1nc(N2CCOCC2)c2nc(-c3ccc(F)c(F)c3)ccc2n1` [Example 243, 2-amino-4-morpholino-6-(3,4-difluorophenyl)-pyrido[3,2-d]pyrimidine], the IC50 in test [1] (Homo sapiens, PBMC) was found to be 6000 nM; in test [2] (Homo sapiens, RPMI-1788), 2300 nM.

Consider `Cc1cc(-c2ccc3nc(N)nc(N4CCOCC4)c3n2)ccc1F` [Example 244, 2-amino-4-morpholino-6-(4-fluoro-3-methylphenyl)-pyrido[3,2-d]pyrimidine], for which the IC50 in test [1] (Homo sapiens, PBMC) amounted to 7200 nM; in test [2] (Homo sapiens, RPMI-1788) it was 3800 nM.

Take `Cc1noc(C)c1-c1ccc2nc(N)nc(N3CCOCC3)c2n1` [Example 246, 2-amino-4-morpholino-6-[4-(3,5-dimethylisoxazolyl)]-pyrido[3,2-d]pyrimidine]: the results for the IC50 in test [1] and in test [2] were 1600 nM and 5500 nM, respectively.

For the compound `COc1ccc(-c2ccc3nc(N)nc(N4CCCN(C(=O)Nc5cccc(C)c5)CC4)c3n2)cc1OC` [Example 250, 2-amino-4-[(N-3-methylphenylcarbamoyl)-homopiperazin-1-yl]-6-(3,4-dimethoxyphenyl)-pyrido[3,2-d]pyrimidine], the IC50 is 600 nM in test [1] (Homo sapiens, PBMC) and 8.5 nM in test [2] (Homo sapiens, RPMI-1788).

Take `COc1ccc(-c2ccc3nc(N)nc(NC4CCN(C(=O)OC(C)(C)C)CC4)c3n2)cc1OC` [Example 255, 2-amino-4-[(1-Boc-piperidin-4-yl)amino]-6-(3,4-dimethoxyphenyl)-pyrido[3,2-d]pyrimidine]: the IC50 in test [1] (Homo sapiens, PBMC) came out at 40 nM; in test [2] (Homo sapiens, RPMI-1788) it was 60 nM.

(Values after US20090264415A2 (priority 2004, published 2009).)
